According to US12234211B2, “Cycloolefin substituted heteroaromatic compounds and their use” (HUTCHISON MEDIPHARMA LIMITED, priority 2017, dated 2025):

Experiments:
IDH1-R132H = target: T1, IDH1-R132H (Homo sapiens, UniProt O75874, R132H); experiment: Fluorescent determination of IDH1-R132H cell activity (2-HG in U87MGR132H cells); format: cell-based; conditions: 2-HG inhibition in U87MGR132H cells transfected with IDH1-R132H mutant plasmid
T1 construct: expressed in transfected cells; host or cells: U87MG cells (U87MGR132H)
T1 sequence (O75874 whole entry R132H): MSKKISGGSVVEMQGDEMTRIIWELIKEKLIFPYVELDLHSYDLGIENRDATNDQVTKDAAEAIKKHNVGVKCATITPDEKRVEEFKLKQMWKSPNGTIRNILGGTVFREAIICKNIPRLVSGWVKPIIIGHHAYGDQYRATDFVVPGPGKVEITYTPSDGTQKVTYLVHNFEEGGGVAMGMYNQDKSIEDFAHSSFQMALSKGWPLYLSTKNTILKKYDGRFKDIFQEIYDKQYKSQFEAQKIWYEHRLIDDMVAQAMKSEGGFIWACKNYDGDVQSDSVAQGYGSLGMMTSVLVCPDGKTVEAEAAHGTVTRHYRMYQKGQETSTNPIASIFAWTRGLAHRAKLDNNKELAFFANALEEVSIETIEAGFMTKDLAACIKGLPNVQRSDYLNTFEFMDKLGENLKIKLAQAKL

IDH2-R140Q = target: T2, IDH2-R140Q (Homo sapiens, UniProt P48735, R140Q); experiment: Fluorescent determination of IDH2-R140Q cell activity (2-HG in U87MGR140Q cells); format: cell-based; conditions: 72 hours incubation, read-out: IC50 (2-HG inhibition)
T2 construct: expressed in transfected cells
T2 sequence (P48735 40-452 R140Q): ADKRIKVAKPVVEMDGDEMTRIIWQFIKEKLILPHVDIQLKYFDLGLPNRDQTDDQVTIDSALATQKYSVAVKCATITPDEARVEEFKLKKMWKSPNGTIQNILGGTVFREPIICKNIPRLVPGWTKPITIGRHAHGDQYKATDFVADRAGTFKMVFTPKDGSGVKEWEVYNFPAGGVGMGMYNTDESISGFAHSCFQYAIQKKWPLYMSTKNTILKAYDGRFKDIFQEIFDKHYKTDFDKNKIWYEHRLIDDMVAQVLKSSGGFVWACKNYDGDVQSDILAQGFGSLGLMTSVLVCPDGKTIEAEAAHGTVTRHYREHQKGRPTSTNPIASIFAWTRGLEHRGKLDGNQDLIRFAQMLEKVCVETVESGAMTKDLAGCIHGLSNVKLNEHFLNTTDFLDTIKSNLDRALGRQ
Procedure: Enzyme reaction solution: 1 mM nicotinamide adenine dinucleotide (NAD), 0.6 ng/μL D-2-hydroxyglutarate dehydrogenase (D2HGDH), 0.8 U/mL lipoamidase dehydrogenase (Diaphorase) and 60 μM Resazurin in 40 mM Tris.HCl pH 8.8 assay buffer.
Standard curve stock solution: The standard of 2-HG sodium salt was serially diluted in serum-free MEM medium to make a standard curve stock solution.
100 μL of U87MGR140Q cells were seeded at a density of 6×10^4/mL per well in a 96-well plate a.
From each well of 96-well plate a, 50 μL of the culture supernatant was transferred to the corresponding well of 96-well plate b; at the same time, 50 μL of standard curve stocking solution was added to other wells of 96-well plate b. Then 10 μl of 360 mM hydrochloric acid was added to all the wells. After shaking and mixing, the plate was placed on ice for 10 minutes, and then 10 μl of 420 mM Tris-base was added. After shaking and mixing, the plate was placed on ice for additional 5 minutes. Then the plate was centrifuged at 2500 rpm for 10 minutes.
After centrifuging, from each well of 96-well plate b, 20 μL of the supernatant was transferred to 96-well plate c. An additional 80 μL of the enzyme reaction solution was added to each well and incubated at 25° C. for 90 minutes.
A standard curve of the fluorescence value vs. the corresponding 2-HG concentration was made, and the 2-HG concentration corresponding to each concentration point of the compound was calculated, then the inhibition ratio was calculated, and the data was analyzed using XLfit5 (ID Business Solutions Limited) software to obtain the IC50 value.
The inhibition ratio was calculated as follows: Inhibition Ratio (IH %)=(1-2-HG concentration of test compound treated cells/2-HG concentration of control cells)×100%.

SMILES	IC50 (IDH1-R132H)	IC50 (IDH2-R140Q)
C[C@@H](Nc1nc(N[C@H](C)C(F)(F)F)nc(C2=C(F)C(O)CCCC2)n1)C(F)(F)F (mixture of isomers) [Compound 21]	0.234 µM	0.099 µM
[2H]C1(O)CCCCC(c2nc(NC3CC(F)(F)C3)nc(N[C@H](C)C(F)(F)F)n2)=C1F (mixture of isomers) [Compound 24]	0.769 µM	0.197 µM
C[C@@H](Nc1nc(N[C@H](C)C(F)(F)F)nc(C2=C(F)C(O)C(Cl)CC2)n1)C(F)(F)F (mixture of isomers) [Compound 99, 3-(4,6-Bis(((R)-1,1,1-trifluoropropan-2-yl)amino)-1,3,5-triazin-2-yl)-6-chloro-2-fluoro-cyclohex-2-en-1-ol]	0.938 µM	0.553 µM
C[C@@H](Nc1nc(NC(C)(C)C)nc(C2=CC(O)CCC2)n1)C(F)(F)F (mixture of isomers) [Compound 155]	2.25 µM	0.319 µM
C[C@H](Nc1nc(N[C@H](C)C(F)(F)F)nc(C2=C(F)C(O)CCC2)n1)c1ccccc1 (mixture of isomers) [Compound 157]	4.35 µM	0.141 µM
C[C@@H](Nc1nc(N[C@H](C)C(F)(F)F)nc(C2=C(F)C(O)CCC2)n1)C1CC1 (mixture of isomers) [Compound 158]	1.52 µM	0.278 µM
C[C@@H](Nc1nc(NC2CC3(CCC3)C2)nc(C2=C(F)C(O)CCC2)n1)C(F)(F)F (mixture of isomers) [Compound 159]	2.72 µM	0.205 µM
CC(C)[C@@H](C)Nc1nc(N[C@H](C)C(F)(F)F)nc(C2=C(F)C(O)CCC2)n1 (mixture of isomers) [Compound 163]	0.809 µM	0.162 µM
CC(C)[C@H](C)Nc1nc(N[C@H](C)C(F)(F)F)nc(C2=C(F)C(O)CCC2)n1 (mixture of isomers) [Compound 167]	3.17 µM	0.327 µM
C[C@H](CF)Nc1nc(N[C@H](C)C(F)(F)F)nc(C2=C(F)C(O)CCC2)n1 (mixture of isomers) [Compound 169]	9.46 µM	0.738 µM
C[C@@H](CF)Nc1nc(N[C@H](C)C(F)(F)F)nc(C2=C(F)C(O)CCC2)n1 (mixture of isomers) [Compound 170]	6.93 µM	1.38 µM
C[C@@H](Nc1nc(N[C@H](C)C(F)(F)F)c(F)c(C2=CC(O)CCC2)n1)C(F)(F)F (mixture of isomers) [Compound 207, 3-(5-fluoro-2,6-bis(((R)-1,1,1-trifluoropropan-2-yl)amino)pyrimidin-4-yl)cyclohex-2-en-1-ol]	1.51 µM	0.564 µM
C[C@@H](Nc1nc(NCC2CC2)nc(C2=C(F)C(O)C(F)(F)CC2)n1)C(F)(F)F (mixture of isomers) [Compound 209]	1.76 µM	0.078 µM
CCCNc1nc(N[C@H](C)C(F)(F)F)nc(C2=C(F)C(O)C(F)(F)CC2)n1 (mixture of isomers) [Compound 210]	4.34 µM	0.093 µM
C[C@@H](Nc1nc(NC2CC2)nc(C2=C(F)C(O)C(F)(F)CC2)n1)C(F)(F)F (mixture of isomers) [Compound 238]	7.36 µM	0.139 µM
C[C@@H](Nc1nc(NCC(F)(F)F)nc(C2=C(F)C(O)C(F)(F)CC2)n1)C(F)(F)F (mixture of isomers) [Compound 245]	1.5 µM	
C[C@H](Nc1nc(NC2CC2)nc(C2=C(F)C(O)C(F)(F)CC2)n1)C(F)(F)F (mixture of isomers) [Compound 260]	> 10 µM	0.094 µM
C[C@H](Nc1nc(NCC(F)(F)F)nc(C2=C(F)C(O)C(F)(F)CC2)n1)C(F)(F)F (mixture of isomers) [Compound 270]	2.85 µM	0.109 µM
[2H]C1(O)C(F)=C(c2nc(NC3CC3)nc(N[C@@H](C)C(F)(F)F)n2)CCC1(F)F (mixture of isomers) [Compound 278]	> 10 µM	0.148 µM
[2H]C1(O)C(F)=C(c2nc(NC3CC3)nc(N[C@H](C)C(F)(F)F)n2)CCC1(F)F (mixture of isomers) [Compound 279]	9.43 µM	0.17 µM

SMILES	IC50 (IDH1-R132H)	IC50 (IDH2-R140Q)
C[C@@H](Nc1nc(N[C@H](C)C(F)(F)F)nc(C2=CC(O)C(F)(F)CC2)n1)C(F)(F)F (mixture of isomers) [Compound 281]	0.455 µM	0.69 µM
[2H]C1(O)C=C(c2nc(N[C@H](C)C(F)(F)F)nc(N[C@H](C)C(F)(F)F)n2)CCC1(F)F (mixture of isomers) [Compound 282]	0.444 µM	0.343 µM
C[C@H](Nc1nc(N[C@@H](C)C(F)(F)F)nc(C2=C(F)C(O)C(F)(F)CC2)n1)C(F)(F)F (mixture of isomers) [Compound 283]	1.32 µM	0.174 µM
C[C@H](Nc1nc(NOC(C)(C)C)nc(C2=C(F)C(O)C(F)(F)CC2)n1)C(F)(F)F (mixture of isomers) [Compound 293]	> 10 µM	0.637 µM
C[C@@H](Nc1nc(NOC(C)(C)C)nc(C2=C(F)C(O)C(F)(F)CC2)n1)C(F)(F)F (mixture of isomers) [Compound 294]	9.18 µM	0.425 µM
CONc1nc(N[C@H](C)C(F)(F)F)nc(C2=C(F)C(O)C(F)(F)CC2)n1 (mixture of isomers) [Compound 297, 2,6,6-Trifluoro-3-(4-(methoxyamino)-6-(((R)-1,1,1-trifluoropropan-2-yl)amino)-1,3,5-triazin-2-yl)cyclohex-2-en-1-ol]	> 10 µM	2.66 µM
C[C@@H](Nc1nc(N[C@H]2CCOC2)nc(C2=CC(F)(F)CCC2)n1)C(F)(F)F [Compound 139]		2.51 µM
C[C@@H](Nc1nc(NC2COC2)nc(C2=CC(O)CCC2)n1)C(F)(F)F (stereo partly shown) [Compound 178]		0.934 µM
C[C@@H](Nc1nc(N[C@@H]2CCOC2)nc(C2=CC(O)CCC2)n1)C(F)(F)F (stereo partly shown) [Compound 179]		0.598 µM
C[C@@H](Nc1nc(N[C@H]2CCOC2)nc(C2=CC(O)CCC2)n1)C(F)(F)F (stereo partly shown) [Compound 180]		0.531 µM
C[C@@H](Nc1nc(N[C@@H]2CCC[C@@H]2O)nc(C2=CC(O)CCC2)n1)C(F)(F)F (stereo partly shown) [Compound 182]		1.23 µM
COC[C@H](C)Nc1nc(N[C@H](C)C(F)(F)F)nc(C2=CC(O)CCC2)n1 (stereo partly shown) [Compound 183]		0.507 µM
C[C@@H](Nc1nc(N[C@H](C)C(F)(F)F)nc(C2=CCCCC2)n1)C(F)(F)F [Compound 186, 6-(Cyclohex-1-en-1-yl)-N^2,N^4-bis((R)-1,1,1-trifluoropropan-2-yl)-1,3,5-triazine-2,4-diamine]		0.677 µM
C1=C(c2nc(NCC3CC3)nc(NCC3CC3)n2)CCCC1 [Compound 187]		0.742 µM
C[C@@H](Nc1nc(NCC(C)(C)O)nc(C2=CCCCC2)n1)C(F)(F)F [Compound 188]		5.02 µM
CC(C)Nc1nc(N[C@H](C)C(F)(F)F)nc(C2=CCCC2)n1 [Compound 189]		1.41 µM
CC(C)Nc1nc(N[C@H](C)C(F)(F)F)nc(C2=CCCCC2)n1 [Compound 190, (R)-6-(cyclohex-1-en-1-yl)-N^2-isopropyl-N^4-(1,1,1-trifluoropropan-2-yl)-1,3,5-triazine-2,4-diamine]		0.413 µM
C[C@@H](Nc1nc(N[C@H](C)C2CC2)nc(C2=CCCCC2)n1)C1CC1 [Compound 191]		0.999 µM
C[C@@H](Nc1nc(NCC2CC2)nc(C2=CCCCC2)n1)C(F)(F)F [Compound 192]		0.314 µM
